How the values were obtained:
WM2032 cells = assay type: cell-based, human; details: WM2032, G9a inhibition by A-366
Excerpt: (§1) In addition, the inventors investigated the growth inhibitory effects of IV in melanoma cells with different NRAS and BRAF status, including A375 and UACC62 (NRASWT, BRAFV600E), and SK-MEL-2 and WM2032 (NRASQ61R, BRAFWT).
(§2) To further confirm the pharmacological effects of IV derive from STK19 inhibition and not G9a inhibition, the inventors investigated the role of G9a in NRAS signaling activation. G9a was silenced by G9a-specific shRNA or inhibited by a specific inhibitor, A-366, in SK-MEL-2 and WM2032 melanoma cells. […] In summary, ZT-12-037-01 (IV) is a specific STK19-targeted inhibitor to block oncogenic NRAS-driven melanocyte malignant transformation and melanoma growth.

SK-MEL-2 cells = assay type: cell-based, human; details: SK-MEL-2, G9a inhibition by A-366
Excerpt: as §1, §2

STK19 = STK19 (Homo sapiens (Human), UniProt P49842); assay: STK19 kinase inhibitory activity, ADP-Glo kinase assay with NRAS substrate; assay type: biochemical
Sequence of STK19 (P49842 other isoform, or with tags, fused parts or gaps): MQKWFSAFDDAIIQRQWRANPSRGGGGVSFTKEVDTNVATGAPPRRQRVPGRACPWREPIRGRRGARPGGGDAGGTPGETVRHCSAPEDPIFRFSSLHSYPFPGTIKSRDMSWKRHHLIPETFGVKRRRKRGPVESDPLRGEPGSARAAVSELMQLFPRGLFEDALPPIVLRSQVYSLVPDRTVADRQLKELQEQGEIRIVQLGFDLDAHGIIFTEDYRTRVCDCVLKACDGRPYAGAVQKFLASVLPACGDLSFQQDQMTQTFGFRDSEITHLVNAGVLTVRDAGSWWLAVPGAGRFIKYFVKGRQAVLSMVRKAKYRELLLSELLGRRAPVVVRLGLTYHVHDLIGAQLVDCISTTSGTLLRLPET

Compound	H3K9 methylation levels (WM2032 cells)	H3K9 methylation levels (SK-MEL-2 cells)	inhibitory potential toward STK19 (STK19; in vitro kinase assay)	inhibition at 10 µM (STK19) [%]
COc1cc2c(cc1OCCCN1CCCC1)N=C(N)C21CCC1 [Formula A-366, reference compound]	markedly repressed	markedly repressed	little inhibitory potential	
COc1cc2nc(N3CCOCC3)nc(NC3CCN(C(C)C)CC3)c2cc1OC [Formula XXI]				59

Source: patent publication US11542240B2, “STK19 inhibitors for treatment of cancer” (TRUSTEES OF BOSTON UNIVERSITY, priority 2018, dated 2023)
